ChEMBL document CHEMBL1201862, “PubChem BioAssay data set” (2004)
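Test compounds were applied to cells in 96-well plates for 48 hours at 5 doses. GI50 = concentration required for 50% inhibition of growth.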 The source made the active and inactive calls. No stated cut-off is given here; in the data, active = GI50 up to about 1.1 µM and inactive = higher.

Key:
Test in all cases: inhibition of tumour cell growth, NCI panel, 48 h
NCI-H522 = test system: NCI-H522
DMS-273 = test system: DMS-273
A498 = test system: A498
HL-60 = test system: HL-60
HOP-62 = test system: HOP-62
KM12 = test system: KM12
M14 = test system: M14
A549 = test system: A549
SF-268 = test system: SF-268
HCT-116 = test system: HCT-116
NCI-H23 = test system: NCI-H23
SNB-19 = test system: SNB-19
SF-295 = test system: SF-295
LOX IMVI = test system: LOX IMVI
786-0 = test system: 786-0
CCRF-CEM = test system: CCRF-CEM
Malme-3M = test system: Malme-3M
NCI-H226 = test system: NCI-H226
IGROV-1 = test system: IGROV-1

SMILES	GI50 (NCI-H522)	GI50 (DMS-273)	GI50 (A498)	GI50 (HL-60)	GI50 (HOP-62)	GI50 (KM12)	GI50 (M14)	GI50 (A549)	GI50 (SF-268)	GI50 (HCT-116)	GI50 (NCI-H23)	GI50 (SNB-19)	GI50 (SF-295)	GI50 (LOX IMVI)	GI50 (786-0)	GI50 (CCRF-CEM)	GI50 (Malme-3M)	GI50 (NCI-H226)	GI50 (IGROV-1)
O=C(N/N=C/c1cccc(F)c1)c1ccncc1	> 10 µM (inactive)	> 100 µM (inactive)	> 100 µM (inactive)	> 100 µM (inactive)	> 100 µM (inactive)	> 100 µM (inactive)	> 100 µM (inactive)	> 100 µM (inactive)	> 100 µM (inactive)	> 100 µM (inactive)	> 100 µM (inactive)	> 100 µM (inactive)	> 100 µM (inactive)	> 100 µM (inactive)	> 100 µM (inactive)	> 100 µM (inactive)	> 100 µM (inactive)	0.056 µM (active)	–
O=C(Nc1cc(Cl)c(Cl)cc1Cl)C(=O)C(C(=O)c1ccc(Cl)c(Cl)c1)C1OC(=O)c2ccccc21 (stereo not given)	10.9 µM (inactive)	16.9 µM (inactive)	17.2 µM (inactive)	18 µM (inactive)	12.6 µM (inactive)	16.6 µM (inactive)	13.5 µM (inactive)	28.7 µM (inactive)	15.7 µM (inactive)	15.1 µM (inactive)	> 10 µM (inactive)	15.5 µM (inactive)	11.9 µM (inactive)	16.4 µM (inactive)	13.4 µM (inactive)	5.35 µM (inactive)	> 10 µM (inactive)	7.45 µM (inactive)	–
O=C(CC1C(=O)Nc2ccccc2S1(=O)=O)Nc1ccc(Cl)cc1 (stereo not given)	16.3 µM (inactive)	13.1 µM (inactive)	25.8 µM (inactive)	12.1 µM (inactive)	–	–	31 µM (inactive)	31.6 µM (inactive)	14.4 µM (inactive)	27.7 µM (inactive)	38.9 µM (inactive)	18.8 µM (inactive)	45.6 µM (inactive)	16.9 µM (inactive)	14.5 µM (inactive)	20.3 µM (inactive)	22.7 µM (inactive)	32.2 µM (inactive)	17.2 µM (inactive)
Nc1nc(Cl)cc(NCC(O)CO)n1 (stereo not given)	–	> 100 µM (inactive)	> 100 µM (inactive)	> 100 µM (inactive)	> 100 µM (inactive)	> 100 µM (inactive)	> 100 µM (inactive)	> 100 µM (inactive)	> 100 µM (inactive)	> 100 µM (inactive)	> 100 µM (inactive)	> 100 µM (inactive)	> 100 µM (inactive)	> 100 µM (inactive)	> 100 µM (inactive)	> 100 µM (inactive)	> 100 µM (inactive)	> 100 µM (inactive)	> 100 µM (inactive)
CCOC(=O)C1([Se]c2ccccc2)CCCC1=O (stereo not given)	3.6 µM (inactive)	14.4 µM (inactive)	> 100 µM (inactive)	4.78 µM (inactive)	96.8 µM (inactive)	30.9 µM (inactive)	21.3 µM (inactive)	32.7 µM (inactive)	11.7 µM (inactive)	15.5 µM (inactive)	17.4 µM (inactive)	44.1 µM (inactive)	31.8 µM (inactive)	13.1 µM (inactive)	14.2 µM (inactive)	15.2 µM (inactive)	32.6 µM (inactive)	29 µM (inactive)	18.6 µM (inactive)
